Experimental data as given in patent publication US10329336B2, “Antimicrobial kinocidin compositions and methods of use” (LA Biomedical Research Institute at Harbor-UCLA Medical …, priority 2006, dated 2019).

What was measured:
[1] = system: Candida albicans (ATCC 36082); test: Solid-phase antimicrobial assay of kinocidins; format: cell-based; conditions: C. albicans; pH 5.5 or 7.5, not separated; 0.5 nmol/well
Protocol: (§1) Peptides (0.5 nmol) were introduced into wells in agarose plates buffered with MES (2.0 mM, pH 5.5) or PIPES (10.0 mM, pH 7.5). Antimicrobial activity was assessed as the zone of complete (blue) or partial (red) inhibition around the well. Abbreviations are: Native IL-8 (IL-8); IL-8α, (α); IL-8γ, (γ); IL-8α+IL-8γ (α+γ); RANTES, (RAN); GRO-α, (GRO); MCP-1, (MCP); lymphotactin, (LYM); platelet factor-4, (PF-4); and HNP-1, (HNP). Histograms are means±SEM (minimum n=2).
(§2) Briefly, the antimicrobial assays were performed against a panel of prototype human pathogens as previously detailed (Yoshimura, T., Matsushima, K., Tanaka, S., Robinson, E. A., Appella, E., Oppenheim, J. J. & Leonard, E. J. (1987) Proc Natl Acad Sci USA 84, 9233-7): Staphylococcus aureus (ATCC 27217; Gram-positive bacterium); Salmonella typhimurium (5996s; Gram-negative bacterium); and the fungus Candida albicans (ATCC 36082). Defensin HNP-1 was included in each assay as an internal control, and all assays were conducted a minimum of two independent times. Results of independent assays were analyzed using Wilcoxon Rank Sum analysis with Bonferroni correction for multiple comparisons.
(§3) For the Solid-Phase Assay, mid-logarithmic phase organisms were prepared, introduced into buffered agarose (PIPES [10 mM, pH 7.5] or MES [2.0 mM, pH 5.5]) to achieve final inocula of 10^6 CFU/ml, and poured into plates. Peptides (0.5 nmol/well [50 nmol/ml]) were added to wells in the seeded matrix, and incubated for 3h at 37° C. Nutrient overlay medium was applied, and assays incubated at 37° C. or 30° C. for bacteria or fungi, respectively. After 24h, zones of inhibition were measured, and results recorded as zones of complete or partial inhibition.

[2] = system: Salmonella typhimurium (5996s); test: Solid-phase antimicrobial assay of kinocidins; format: cell-based; conditions: S. typhimurium (Gram-negative); pH 5.5 or 7.5, not separated; 0.5 nmol/well
Protocol: as §1, §2, §3

[3] = system: Staphylococcus aureus (ATCC 27217); test: Solid-phase antimicrobial assay of kinocidins; format: cell-based; conditions: S. aureus (Gram-positive); pH 5.5 or 7.5, not separated; 0.5 nmol/well
Protocol: as §1, §2, §3

C. albicans ATCC 36082 = test: Solution-phase microbicidal assay; format: cell-based, Candida albicans
Protocol: One million CFU of the indicated microorganism per milliliter were incubated with peptide (0.00125-20.0 nmol/ml) in either MES (2.0 mM, pH 5.5) or PIPES (10.0 mM, pH 7.5) for one hour at 37° C. Surviving CFU were enumerated and are described as change in the initial log 10 CFU. ∘, S. aureus ATCC 27217; ●, S. typhimurium strain 5990s; □, C. albicans ATCC 36082. Data are means±SD (minimum n=2).
as §2
To characterize IL-8's antimicrobial activity in more detail, a quantitative solution-phase assay was carried out at pH 5.5 and 7.5. Organisms were prepared and adjusted to 10^6 CFU/ml in PIPES or MES buffer as above but lacking agarose, and dispensed (5×10^4 CFU per 50 μl aliquot). Peptide (concentration range, 20-0.00125 nmol/ml) was introduced into the assay medium, and incubated for 1 hour at 37° C. After incubation, media were serially diluted and plated in triplicate for enumeration. […] IL-8 was also fungicidal for C. albicans at pH 7.5, with a 2-log reduction in surviving CFU over 1 hour at a concentration of 2.5 nmol/ml.

[4] = system: Escherichia coli strain ML-35; test: Ex vivo biomatrix assay in human whole blood, plasma and serum; format: cell-based
Source text: FIG. 18A-B show antimicrobial efficacy of IL-8α in human blood and blood-derived matrices as compared with artificial media (MHB) at pH 5.5 and 7.2. […] The E. coli inocula (INOC) were 10^5 CFU/ml, and the threshold of sensitivity was considered 0.3 log 10 CFU/ml.
To assess the physiological relevance of the observed in vitro (solid and solution-phase) antimicrobial activity for IL-8 and IL-8α, we assessed the efficacy of IL-8α in the ex vivo biomatrix assay. This assay has been developed to assess antimicrobial polypeptide efficacy in complex human blood matrices. Antimicrobial activity of IL-8α in human whole blood and homologous plasma and serum fractions was assessed (Yeaman, M. R., Gank, K. D., Bayer, A. S., and Brass, E. P. (2002) Antimicrob Agents Chemother 46, 3883-3891). For biomatrix studies, the well-characterized Escherichia coli strain ML-35 was used as the target organism (Lehrer, R. I., Barton, A., Daher, K, A., Harwig, S. S., Ganz, T., and Selsted, M. E. (1989) J Clin Invest 84, 553-561). This strain is resistant to serum, ideal for use in assessing peptide antimicrobial activity in blood and blood-derived matrices (Yeaman, M. R., Gank, K. D., Bayer, A. S., and Brass, E. P. (2002) Antimicrob Agents Chemother 46, 3883-3891). Organisms were cultured to mid-logarithmic phase in brain-heart infusion broth (Difco Laboratories, Detroit, Mich.) at 37° C., washed, and resuspended in PBS (Irvine Scientific; pH 7.2). Inocula were quantified spectrophotometrically and validated by quantitative culture. Biomatrices were distributed in 85-l aliquots into 96-well microtiter plates (Corning Glass Works, Corning, N.Y.) Peptide (5l; concentration range 1.0-50.0 μg/ml) was added either simultaneously with the microorganism (10 μl; 10^5 CFU/ml), or after a 120 min pre-incubation period in the biomatrix. The mixtures were incubated with constant agitation for 2 h at 37° C. After incubation, aliquots were diluted and quantitatively cultured in triplicate onto blood agar. Surviving organisms were enumerated as CFU/ml. […]

Question: With “KENWVQRVVEKFLKRAENS [IL-8α, synthetic α-helix domain of IL-8 (CXCL8)]” as the sequence, how does the “antifungal activity (zone of inhibition)” value [1] read?
Answer: Its value is “virtually indistinguishable from that of the native molecule”.

Question: And the “antimicrobial activity (zone of inhibition)” value [2]?
Answer: Its value is “virtually indistinguishable from that of the native molecule”.

Question: And the “antimicrobial activity (zone of inhibition)” value [3]?
Answer: Its value is “virtually indistinguishable from that of the native molecule”.

Question: And the “activity relative to native IL-8, by mass” value (C. albicans ATCC 36082; C. albicans, solution-phase)?
Answer: The value was 10 fold.

Question: And the “reduction in surviving C. albicans” value (C. albicans ATCC 36082; pH 5.5, 0.125 nmol/ml (1.0 μg/ml), 1 hour exposure)?
Answer: The value was “five”.

Question: What about the “decrease in E. coli CFU” value ([4]; 10 μg/ml peptide, human blood and blood-derived matrices, 2 h at 37° C.) of the same sequence?
Answer: Its value is at most 5 log CFU/ml.

Question: What about the “antimicrobial efficacy in biomatrix” value ([4]; plasma fractions or after 2 hour preincubation) of the same sequence?
Answer: The value was “less activity”.

Question: What about the “antimicrobial efficacy in biomatrix” value ([4]; whole blood and serum, co-incubation) of the same sequence?
Answer: The value was “Greatest efficacy”.
